# Results: ChEMBL document CHEMBL4308841, “Synthesis, in vitro antiproliferative activity, and kinase inhibitory effects of pyrazole-containing diarylureas and diarylamides” (Eur J Med Chem, 2018)
# Tests used:
# K562 = test: Growth inhibition of human K562 cells assessed as cell growth at 10 uM incubated for 48 hrs by sulforhodamine B assay relative to control; type: functional; details: K562, 48 h, read-out: Activity
# RPMI-8226 = test: Growth inhibition of human RPMI8226 cells assessed as cell growth at 10 uM incubated for 48 hrs by sulforhodamine B assay relative to control; type: functional; details: RPMI-8226, 48 h, read-out: Activity
# HOP-62 = test: Growth inhibition of human HOP62 cells assessed as cell growth at 10 uM incubated for 48 hrs by sulforhodamine B assay relative to control; type: functional; details: HOP-62, 48 h, read-out: Activity
# NCI-H23 = test: Growth inhibition of human NCI-H23 cells assessed as cell growth at 10 uM incubated for 48 hrs by sulforhodamine B assay relative to control; type: functional; details: NCI-H23, 48 h, read-out: Activity
# COLO 205 = test: Growth inhibition of human COLO205 cells assessed as cell growth at 10 uM incubated for 48 hrs by sulforhodamine B assay relative to control; type: functional; details: COLO 205, 48 h, read-out: Activity
# HCT-15 = test: Growth inhibition of human HCT15 cells assessed as cell growth at 10 uM incubated for 48 hrs by sulforhodamine B assay relative to control; type: functional; details: HCT-15, 48 h, read-out: Activity
# SW-620 = test: Growth inhibition of human SW620 cells assessed as cell growth at 10 uM incubated for 48 hrs by sulforhodamine B assay relative to control; type: functional; details: SW-620, 48 h, read-out: Activity
# SF-268 = test: Growth inhibition of human SF268 cells assessed as cell growth at 10 uM incubated for 48 hrs by sulforhodamine B assay relative to control; type: functional; details: SF-268, 48 h, read-out: Activity
# U-251 = test: Growth inhibition of human U251 cells assessed as cell growth at 10 uM incubated for 48 hrs by sulforhodamine B assay relative to control; type: functional; details: U-251, 48 h, read-out: Activity
# Malme-3M = test: Growth inhibition of human MALME-3M cells assessed as cell growth at 10 uM incubated for 48 hrs by sulforhodamine B assay relative to control; type: functional; details: read-out: Activity
# UACC-62 = test: Growth inhibition of human UACC62 cells assessed as cell growth at 10 uM incubated for 48 hrs by sulforhodamine B assay relative to control; type: functional; details: UACC-62, 48 h, read-out: Activity
# IGROV-1 = test: Growth inhibition of human IGROV1 cells assessed as cell growth at 10 uM incubated for 48 hrs by sulforhodamine B assay relative to control; type: functional; details: IGROV-1, 48 h, read-out: Activity
# OVCAR-3 [1] = test: Growth inhibition of human OVCAR3 cells assessed as cell growth at 10 uM incubated for 48 hrs by sulforhodamine B assay relative to control; type: functional; details: OVCAR-3, 48 h, read-out: Activity
# OVCAR-4 = test: Growth inhibition of human OVCAR4 cells assessed as cell growth at 10 uM incubated for 48 hrs by sulforhodamine B assay relative to control; type: functional; details: OVCAR-4, 48 h, read-out: Activity
# OVCAR-8 = test: Growth inhibition of human OVCAR8 cells assessed as cell growth at 10 uM incubated for 48 hrs by sulforhodamine B assay relative to control; type: functional; details: OVCAR-8, 48 h, read-out: Activity
# NCI/ADR-RES = test: Growth inhibition of human NCI/ADR-RES cells assessed as cell growth at 10 uM incubated for 48 hrs by sulforhodamine B assay relative to control; type: functional; details: read-out: Activity
# SK-OV-3 = test: Growth inhibition of human SKOV3 cells assessed as cell growth at 10 uM incubated for 48 hrs by sulforhodamine B assay relative to control; type: functional; details: SK-OV-3, 48 h, read-out: Activity
# SN12C = test: Growth inhibition of human SN12C cells assessed as cell growth at 10 uM incubated for 48 hrs by sulforhodamine B assay relative to control; type: functional; details: read-out: Activity
# DU-145 [2] = test: Growth inhibition of human DU145 cells assessed as cell growth at 10 uM incubated for 48 hrs by sulforhodamine B assay relative to control; type: functional; details: DU-145, 48 h, read-out: Activity
# MDA-MB-231 = test: Growth inhibition of human MDA-MB-231 cells assessed as cell growth at 10 uM incubated for 48 hrs by sulforhodamine B assay relative to control; type: functional; details: MDA-MB-231, 48 h, read-out: Activity
# Hs-578T = test: Growth inhibition of human Hs578T cells assessed as cell growth at 10 uM incubated for 48 hrs by sulforhodamine B assay relative to control; type: functional; details: read-out: Activity
# NCI-H226 = test: Growth inhibition of human NCI-H226 cells incubated for 48 hrs by sulforhodamine B assay; type: functional, cell-based; details: NCI-H226, 48 h
# CAKI-1 = test: Growth inhibition of human Caki1 cells incubated for 48 hrs by sulforhodamine B assay; type: functional, cell-based; details: CAKI-1, 48 h
# DU-145 [3] = test: Growth inhibition of human DU145 cells incubated for 48 hrs by sulforhodamine B assay; type: functional, cell-based; details: DU-145, 48 h
# T47D = test: Growth inhibition of human T47D cells incubated for 48 hrs by sulforhodamine B assay; type: functional, cell-based
# SK-MEL-28 = test: Growth inhibition of human SK-MEL-28 cells assessed as cell growth at 0.01 uM incubated for 48 hrs by sulforhodamine B assay relative to control; type: functional; details: SK-MEL-28, 48 h, read-out: Activity
# OVCAR-3 [4] = test: Growth inhibition of human OVCAR3 cells assessed as cell growth at 0.01 uM incubated for 48 hrs by sulforhodamine B assay relative to control; type: functional; details: OVCAR-3, 48 h, read-out: Activity
# CCRF-CEM = test: Growth inhibition of human CCRF-CEM cells assessed as cell growth at 0.1 uM incubated for 48 hrs by sulforhodamine B assay relative to control; type: functional; details: read-out: Activity
# A549 = test: Growth inhibition of human A549/ATCC cells assessed as cell growth at 100 uM incubated for 48 hrs by sulforhodamine B assay relative to control; type: functional; details: A549, 48 h, read-out: Activity
# LOX IMVI = test: Growth inhibition of human LOXIMVI cells assessed as cell growth at 100 uM incubated for 48 hrs by sulforhodamine B assay relative to control; type: functional; details: read-out: Activity
# DU-145 [5] = test: Growth inhibition of human DU145 cells assessed as cell growth at 100 uM incubated for 48 hrs by sulforhodamine B assay relative to control; type: functional; details: DU-145, 48 h, read-out: Activity
# [6] = read-out: LC50 (the source's name)
# [7] = read-out: pLC50 (the source's name) (converted)
smiles,measurement,setting,value
COc1cc(Cl)cc(-c2nn(-c3cccc(NC(=O)Nc4ccc(Cl)c(Cl)c4)c3)cc2-c2ccncc2)c1,growth at 10 µM,K562,10%
same,growth at 10 µM,RPMI-8226,-4.44%
same,growth at 10 µM,HOP-62,15.7%
same,growth at 10 µM,NCI-H23,5.72%
same,growth at 10 µM,COLO 205,-70.3%
same,growth at 10 µM,HCT-15,13.9%
same,growth at 10 µM,SW-620,13.3%
same,growth at 10 µM,SF-268,25.3%
same,growth at 10 µM,U-251,3.01%
same,growth at 10 µM,Malme-3M,-19.8%
same,growth at 10 µM,UACC-62,4.38%
same,growth at 10 µM,IGROV-1,36.7%
same,growth at 10 µM,OVCAR-3 [1],4.11%
same,growth at 10 µM,OVCAR-4,13.3%
same,growth at 10 µM,OVCAR-8,1.93%
same,growth at 10 µM,NCI/ADR-RES,8.59%
same,growth at 10 µM,SK-OV-3,14.2%
same,growth at 10 µM,SN12C,15.5%
same,growth at 10 µM,DU-145 [2],12.1%
same,growth at 10 µM,MDA-MB-231,-21%
same,growth at 10 µM,Hs-578T,28.5%
same,GI50,NCI-H226; read-out: GI50,3.06 µM
same,LC50,NCI-H226; read-out: LC50,> 100 µM
same,TGI,NCI-H226; read-out: TGI,> 100 µM
same,GI50,NCI-H226; read-out: pGI50 (converted),3.09 µM
same,LC50,NCI-H226; read-out: pLC50 (converted),> 100 µM
same,TGI,NCI-H226; read-out: pTGI (converted),> 100 µM
same,GI50,CAKI-1; read-out: GI50,2.38 µM
same,CC50,CAKI-1; [6],> 100 µM
same,TGI,CAKI-1; read-out: TGI,15.7 µM
same,GI50,CAKI-1; read-out: pGI50 (converted),2.4 µM
same,CC50,CAKI-1; [7],> 100 µM
same,TGI,CAKI-1; read-out: pTGI (converted),16.6 µM
same,GI50,DU-145 [3]; read-out: GI50,3 µM
same,CC50,DU-145 [3]; [6],> 100 µM
same,TGI,DU-145 [3]; read-out: TGI,> 100 µM
same,GI50,DU-145 [3]; read-out: pGI50 (converted),3.89 µM
same,CC50,DU-145 [3]; [7],> 100 µM
same,TGI,DU-145 [3]; read-out: pTGI (converted),> 100 µM
same,GI50,T47D; read-out: GI50,2.78 µM
same,CC50,T47D; [6],> 100 µM
same,TGI,T47D; read-out: TGI,15.9 µM
same,GI50,T47D; read-out: pGI50 (converted),2.75 µM
same,CC50,T47D; [7],> 100 µM
same,TGI,T47D; read-out: pTGI (converted),19.1 µM
same,growth at 0.01 µM,SK-MEL-28,101%
same,growth at 0.01 µM,OVCAR-3 [4],100%
same,growth at 0.1 µM,CCRF-CEM,97%
same,growth at 100 µM,A549,-10%
same,growth at 100 µM,LOX IMVI,-30%
same,growth at 100 µM,DU-145 [5],13%
